Results: US20080280891A1, “Anti-cancer agents and uses thereof” (Locus Pharmaceuticals, Inc., priority 2006, published 2008)

Assays:
[1] = test system: MCF-7 breast cancer cells; experiment: Cell cycle assay (Example 164), G2/M block in MCF-7 cells; type: cell-based; settings: for activation at 0.1 µM / IC50: Homo sapiens, MCF7; for activation at 0.1 µM / MCF-7 G2/M Block 1 μM: 24 h, flow cytometry (PI); for activation at 0.1 µM: Table 4; for IC50: MCF-7, footnotes * and ** of Table 4, read-out: IC50 (footnote mark in column MCF-7 G2/M Block); for MCF-7 G2/M Block 1 μM: Table 3
Method: (§1) The adherent MCF-7 breast cancer cells and NCI-H522 non small cell lung cancer cells were grown and maintained in EMEM cell culture media containing 10% fetal calf serum.
(§2) Cells were allowed to adhere for 24 hrs. After adherence, cell culture media was changed to that containing 0.5% FCS. Thirty minutes post-media change, test compounds were added at a concentration of either 1.0 or 0.1 μM (as specified in the Tables). Twenty-four hours after test agent addition, cells were analyzed for cell cycle status as described below.
(§3) Cell cycle status was analyzed by flow cytometry. Briefly, cells were collected and washed with FACs buffer (Pharmingen) and resuspended and fixed in 1 mL of 80% ethanol for 1 hr. Cells were washed with FACs buffer and resuspended in propidium iodide(PI)/RNase staining buffer (Pharmingen). PI is a fluorescent dye that labels nucleic acids such as DNA. The fluorescence within a cell (in the presence of PI) is proportional to the amount of DNA within a cell. The cell content of DNA is an indicator of status in the cell cycle. […] Cells in the S phase have DNA content that lies between these extremes.
(§4) For testing of cell cycle effects of test agents the percentage of cells within the G1 and G2/M phase were measured.

[2] = test system: NCI-H522 non small cell lung cancer cells; experiment: Cell cycle assay (Example 164), G2/M block in NCI-H522 cells; type: cell-based; settings: Homo sapiens; for activation at 0.1 µM: 24 h, flow cytometry (PI); for IC50: H522, footnotes * and ** of Table 4, read-out: IC50 (footnote mark in H522 G2/M Block)
Method: as §1, §2, §3, §4

SMILES	activation at 0.1 µM [1]	activation at 0.1 µM ([2]; Table 4)	IC50 [1]	MCF-7 G2/M Block 1 μM [1]	activation at 0.1 µM ([2]; Table 3)	IC50 [2]
COc1ccc(-c2cc(NS(C)(=O)=O)cc(-c3cccc4[nH]ccc34)c2)cn1 [N-[3-(1H-Indol-4-yl)-5-(6-methoxy-pyridin-3-yl)-phenyl]-methanesulfonamide]	≥ 50%	≥ 50%	–	–	–	–
CC(=O)Nc1cc(-c2cccc(C)c2)cc(-c2cccc3[nH]ccc23)c1 [N-[5-(1H-Indol-4-yl)-3′-methyl-biphenyl-3-yl]-acetamide]	≥ 50%	≥ 50%	–	–	–	–
COC(=O)Nc1cc(-c2ccc(OC)nc2)cc(-c2cccc3[nH]ccc23)c1 [[3-(1H-Indol-4-yl)-5-(6-methoxy-pyridin-3-yl)-phenyl]-carbamic acid methyl ester]	< 50%	≥ 50%	100 to 1000 nM	–	–	–
CS(=O)(=O)Nc1cc(-c2ccnc(N)n2)cc(-c2cccc3[nH]ccc23)c1 [N-[3-(2-Amino-pyrimidin-4-yl)-5-(1H-indol-4-yl)-phenyl]-methanesulfonamide]	≥ 50%	≥ 50%	–	–	–	–
O=C(CO)Nc1cc(C(=O)c2ccnc(N3CCOCC3)c2)cc(-c2cccc3[nH]ccc23)c1 [2-Hydroxy-N-[3-(1H-indol-4-yl)-5-(2-morpholin-4-yl-pyridine-4-carbonyl)-phenyl]-acetamide]	≥ 50%	≥ 50%	–	–	–	–
CC(=O)Nc1cc(C(=O)c2ccnc(N3CCOCC3)c2)cc(-c2cccc3[nH]ccc23)c1 [N-[3-(1H-Indol-4-yl)-5-(2-morpholin-4-yl-pyridine-4-carbonyl)-phenyl]-acetamide]	≥ 50%	≥ 50%	–	–	–	–
CS(=O)(=O)Nc1cc(-c2cc(C(F)(F)F)ccc2F)cc(-c2cccc3[nH]ccc23)c1 [N-[2′-fluoro-5-(1H-indol-4-yl)-5′-trifluoromethyl-biphenyl-3-yl]-methanesulfonamide]	≥ 50%	≥ 50%	–	–	–	–
CS(=O)(=O)Nc1cc(-c2ccnc(Cl)c2)cc(-c2cccc3[nH]ccc23)c1 [N-[3-(2-Chloro-pyridin-4-yl)-5-(1H-indol-4-yl)-phenyl]-methanesulfonamide]	≥ 50%	≥ 50%	–	–	–	–
COC(=O)Nc1cc(C(=O)c2cc(C)nc(C#N)c2)cc(-c2cccc3[nH]ccc23)c1 [[3-(2-Cyano-6-methyl-pyridine-4-carbonyl)-5-(1H-indol-4-yl)-phenyl]-carbamic acid methyl ester]	≥ 50%	≥ 50%	–	–	–	–
CS(=O)(=O)Nc1cc(C(=O)c2ccnc(N3CCCCC3)c2)cc(-c2cccc3[nH]ccc23)c1 [N-[3-(1H-Indol-4-yl)-5-(3,4,5,6-tetrahydro-2H-[1,2′]bipyridinyl-4′-carbonyl)-phenyl]-methanesulfonamide]	< 50%	≥ 50%	–	–	–	–
CC(=O)Nc1cc(-c2ccncc2)cc(-c2cccc3[nH]ccc23)c1 [N-[3-(1H-Indol-4-yl)-5-pyridin-4-yl-phenyl]-acetamide]	≥ 50%	≥ 50%	–	–	–	–
CCc1ncccc1Nc1cc(O)cc(-c2cccc3[nH]ccc23)c1 [3-(2-Ethyl-pyridin-3-ylamino)-5-(1H-indol-4-yl)-phenol]	–	–	–	Y (Y indicates a 50% or greater increase in the number of cells in the G2/M phase, as compared to control)	≥ 50%	–
CS(=O)(=O)Nc1cc(C(=O)c2ccnc(N3CCOCC3)c2)cc(-c2cccc3[nH]ccc23)c1 [N-[3-(1H-Indol-4-yl)-5-(2-morpholin-4-yl-pyridine-4-carbonyl)-phenyl]-methanesulfonamide]	≥ 50%	≥ 50%	–	–	–	–
COc1cc(C(=O)c2cc(NS(C)(=O)=O)cc(-c3cccc4[nH]ccc34)c2)ccn1 [N-[3-(1H-Indol-4-yl)-5-(2-methoxy-pyridine-4-carbonyl)-phenyl]-methanesulfonamide]	–	–	–	Y (Y indicates a 50% or greater increase in the number of cells in the G2/M phase, as compared to control)	≥ 50%	–
COc1cc(C(=O)c2cc(NS(C)(=O)=O)cc(-c3cccc4[nH]ccc34)c2)cc(C)n1 [N-[3-(1H-Indol-4-yl)-5-(2-methoxy-6-methyl-pyridine-4-carbonyl)-phenyl]-methanesulfonamide]	≥ 50%	≥ 50%	–	–	–	–
Cc1cccc(-c2cc(NS(C)(=O)=O)cc(-c3cccc4[nH]ccc34)c2)c1 [N-[5-(1H-Indol-4-yl)-3′-methyl-biphenyl-3-yl]-methanesulfonamide]	≥ 50%	≥ 50%	–	–	–	–
CS(=O)(=O)Nc1cc(-c2nc3ccccc3o2)cc(-c2cccc3[nH]ccc23)c1 [N-[3-Benzoxazol-2-yl-5-(1H-indol-4-yl)-phenyl]-methanesulfonamide]	≥ 50%	≥ 50%	–	–	–	–

SMILES	activation at 0.1 µM [1]	activation at 0.1 µM ([2]; Table 4)	IC50 [1]	MCF-7 G2/M Block 1 μM [1]	activation at 0.1 µM ([2]; Table 3)	IC50 [2]
CC(=O)Nc1cc(-c2cccnc2)cc(-c2cccc3[nH]ccc23)c1 [N-[3-(1H-Indol-4-yl)-5-pyridin-3-yl-phenyl]-acetamide]	≥ 50%	≥ 50%	–	–	–	–
COC(=O)Nc1cc(C(=O)c2ccnc(Cl)c2)cc(-c2cccc3[nH]ccc23)c1 [[3-(2-Chloro-pyridine-4-carbonyl)-5-(1H-indol-4-yl)-phenyl]-carbamic acid methyl ester]	< 50%	< 50%	500 to 5000 nM	–	–	–
CC(=O)Nc1cc(-c2ccc(C(F)(F)F)cc2)cc(-c2cccc3[nH]ccc23)c1 [N-[5-(1H-Indol-4-yl)-4′-trifluoromethyl-biphenyl-3-yl]-acetamide]	< 50%	< 50%	100 to 1000 nM	–	–	100 to 1000 nM
CS(=O)(=O)Nc1cc(-c2cccc(C(F)(F)F)c2)cc(-c2cccc3[nH]ccc23)c1 [N-[5-(1H-indol-4-yl)-3′-trifluoromethyl-biphenyl-3-yl]-methanesulfonamide]	≥ 50%	≥ 50%	–	–	–	–
Cc1cc(C(=O)c2cc(NS(C)(=O)=O)cc(-c3cccc4[nH]ccc34)c2)cc(N2CCOCC2)n1 [N-[3-(1H-Indol-4-yl)-5-(2-methyl-6-morpholin-4-yl-pyridine-4-carbonyl)-phenyl]-methanesulfonamide]	≥ 50%	≥ 50%	–	–	–	–
COC(=O)Nc1cc(-c2cccnc2)cc(-c2cccc3[nH]ccc23)c1 [[3-(1H-Indol-4-yl)-5-pyridin-3-yl-phenyl]-carbamic acid methyl ester]	< 50%	≥ 50%	–	–	–	–
COC(=O)Nc1cc(-c2ccncc2)cc(-c2cccc3[nH]ccc23)c1 [[3-(1H-Indol-4-yl)-5-pyridin-4-yl-phenyl]-carbamic acid methyl ester]	≥ 50%	≥ 50%	–	–	–	–
CC(=O)Nc1cc(C(=O)c2cc(C)nc(N3CCOCC3)c2)cc(-c2cccc3[nH]ccc23)c1 [N-[3-(1H-Indol-4-yl)-5-(2-methyl-6-morpholin-4-yl-pyridine-4-carbonyl)-phenyl]-acetamide]	≥ 50%	≥ 50%	–	–	–	–
COC(=O)Nc1cc(C(=O)c2ccnc(OC)c2)cc(-c2cccc3occc23)c1 [[3-Benzofuran-4-yl-5-(2-methoxy-pyridine-4-carbonyl)-phenyl]-carbamic acid methyl ester]	< 50%	< 50%	500 to 5000 nM	–	–	500 to 5000 nM
CS(=O)(=O)Nc1cc(C(=O)c2ccnc(N3CCSCC3)c2)cc(-c2cccc3[nH]ccc23)c1 [N-[3-(1H-Indol-4-yl)-5-(2-thiomorpholin-4-yl-pyridine-4-carbonyl)-phenyl]-methanesulfonamide]	≥ 50%	≥ 50%	–	–	–	–
COC(=O)Nc1cc(-c2nc3ccccc3o2)cc(-c2cccc3[nH]ccc23)c1 [[3-Benzoxazol-2-yl-5-(1H-indol-4-yl)-phenyl]-carbamic acid methyl ester]	≥ 50%	≥ 50%	–	–	–	–
COC(=O)Nc1cc(C(=O)c2ccnc(OC)c2)cc(-c2cccc3[nH]ccc23)c1 [[3-(1H-Indol-4-yl)-5-(2-methoxy-pyridine-4-carbonyl)-phenyl]-carbamic acid methyl ester]	≥ 50%	< 50%	–	–	–	–
COC(=O)Nc1cc(C(=O)c2cc(C)nc(N(C)C)c2)cc(-c2cccc3[nH]ccc23)c1 [[3-(2-Dimethylamino-6-methyl-pyridine-4-carbonyl)-5-(1H-indol-4-yl)-phenyl]-carbamic acid methyl ester]	≥ 50%	≥ 50%	–	–	–	–
Nc1nccc(-c2cc(O)cc(-c3cccc4[nH]ccc34)c2)n1 [3-(2-Amino-pyrimidin-4-yl)-5-(1H-indol-4-yl)-phenol]	< 50%	≥ 50%	–	–	–	–
COc1cc(C(=O)c2cc(C(N)=O)cc(-c3cccc4[nH]ccc34)c2)ccn1 [3-(1H-Indol-4-yl)-5-(2-methoxy-pyridine-4-carbonyl)-benzamide]	≥ 50%	≥ 50%	–	–	–	–
CS(=O)(=O)Nc1cc(-c2cccc([N+](=O)[O-])c2)cc(-c2cccc3[nH]ccc23)c1 [N-[5-(1H-indol-4-yl)-3′-nitro-biphenyl-3-yl]-methanesulfonamide]	≥ 50%	≥ 50%	–	–	–	–
